≈ marks a conversion by molar mass, not a printed value. Positions of bridges follow the written chain, without caps; N, C: chain ends. Non-standard residues stand in square brackets, D forms with d. Residues, ends and D or L forms follow the SMILES beside them. *: point of attachment. X1 = CC[C@H](C)CCCCC(=O)*; Dab = NCC[C@H](N)C(=O)O
What was measured:
Escherichia coli [1] = test: Antimicrobial activity against Escherichia coli ATCC 25922 after 24 hrs by NCCLS-protocol based assay; format: functional; conditions: ATCC 25922, 24 h
Escherichia coli [2] = test: Antimicrobial activity against Escherichia coli 078 after 24 hrs by NCCLS-protocol based assay; format: functional; conditions: Escherichia coli, 078, 24 h
Escherichia coli [3] = test: Bactericidal activity against Escherichia coli K99 incubated for 4 hrs followed by culture spread on agar plates and cultured overnight; format: functional; conditions: K99, 4 h, read-out: MBC>99.9
Escherichia coli [4] = test: Bactericidal activity against Escherichia coli UB1005 incubated for 4 hrs followed by culture spread on agar plates and cultured overnight; format: functional; conditions: UB1005, 4 h, read-out: MBC>99.9
Escherichia coli [5] = test: Bactericidal activity against Escherichia coli K88 incubated for 4 hrs followed by culture spread on agar plates and cultured overnight; format: functional; conditions: K88, 4 h, read-out: MBC>99.9
Salmonella typhimurium [6] = test: Bactericidal activity against Salmonella typhimurium ATCC 14028 incubated for 4 hrs followed by culture spread on agar plates and cultured overnight; format: functional, Salmonella enterica subsp. enterica serovar Typhimurium; conditions: Salmonella enterica, ATCC 14028, 4 h; read-out: MBC>99.9
Pseudomonas aeruginosa [7] = test: Bactericidal activity against Pseudomonas aeruginosa 26305 clinical isolates incubated for 4 hrs followed by culture spread on agar plates and cultured overnight; format: functional; conditions: Pseudomonas aeruginosa, 26305, 4 h; read-out: MBC>99.9
Pseudomonas aeruginosa [8] = test: Antimicrobial activity against Pseudomonas aeruginosa 25349 clinical isolates after 24 hrs by NCCLS-protocol based assay; format: functional; conditions: Pseudomonas aeruginosa, 25349, 24 h
Pseudomonas aeruginosa [9] = test: Bactericidal activity against Pseudomonas aeruginosa PAO1 incubated for 4 hrs followed by culture spread on agar plates and cultured overnight; format: functional; conditions: PAO1, 4 h, read-out: MBC>99.9
[10] = Bactericidal activity against Salmonella pullorum C7913 incubated for 4 hrs followed by culture spread on agar plates and cultured overnight; format: functional, Salmonella enterica subsp. enterica serovar Pullorum; conditions: Salmonella enterica, C7913, 4 h; read-out: MBC>99.9
Escherichia coli [11] = test: Antimicrobial activity against Escherichia coli UB1005 after 24 hrs by NCCLS-protocol based assay; format: functional; conditions: UB1005, 24 h
[12] = Antimicrobial activity against Salmonella pullorum C7913 after 24 hrs by NCCLS-protocol based assay; format: functional, Salmonella enterica subsp. enterica serovar Pullorum; conditions: Salmonella enterica, C7913, 24 h
Escherichia coli [13] = test: Antimicrobial activity against Escherichia coli K99 after 24 hrs by NCCLS-protocol based assay; format: functional; conditions: K99, 24 h
Pseudomonas aeruginosa [14] = test: Bactericidal activity against Pseudomonas aeruginosa ATCC 27853 incubated for 4 hrs followed by culture spread on agar plates and cultured overnight; format: functional; conditions: ATCC 27853, 4 h, read-out: MBC>99.9
Klebsiella pneumoniae [15] = test: Antimicrobial activity against Klebsiella pneumoniae after 24 hrs by NCCLS-protocol based assay; format: functional
Pseudomonas aeruginosa [16] = test: Antimicrobial activity against Pseudomonas aeruginosa PAO1 after 24 hrs by NCCLS-protocol based assay; format: functional; conditions: PAO1, 24 h
Pseudomonas aeruginosa [17] = test: Bactericidal activity against Pseudomonas aeruginosa CICC 21630 clinical isolates incubated for 4 hrs followed by culture spread on agar plates and cultured overnight; format: functional; conditions: CICC 21630, 4 h, read-out: MBC>99.9
Pseudomonas aeruginosa [18] = test: Antimicrobial activity against Pseudomonas aeruginosa CICC 21625 clinical isolates after 24 hrs by NCCLS-protocol based assay; format: functional; conditions: CICC 21625, 24 h
Klebsiella pneumoniae [19] = test: Bactericidal activity against Klebsiella pneumoniae incubated for 4 hrs followed by culture spread on agar plates and cultured overnight; format: functional; conditions: read-out: MBC>99.9
Pseudomonas aeruginosa [20] = test: Antimicrobial activity against Pseudomonas aeruginosa CICC 21630 clinical isolates after 24 hrs by NCCLS-protocol based assay; format: functional; conditions: CICC 21630, 24 h
Pseudomonas aeruginosa [21] = test: Antimicrobial activity against Pseudomonas aeruginosa ATCC 27853 after 24 hrs by NCCLS-protocol based assay; format: functional; conditions: ATCC 27853, 24 h
Pseudomonas aeruginosa [22] = test: Bactericidal activity against Pseudomonas aeruginosa 25349 clinical isolates incubated for 4 hrs followed by culture spread on agar plates and cultured overnight; format: functional; conditions: Pseudomonas aeruginosa, 25349, 4 h; read-out: MBC>99.9
Pseudomonas aeruginosa [23] = test: Bactericidal activity against Pseudomonas aeruginosa CICC 21625 clinical isolates incubated for 4 hrs followed by culture spread on agar plates and cultured overnight; format: functional; conditions: CICC 21625, 4 h, read-out: MBC>99.9
Salmonella typhimurium [24] = test: Antimicrobial activity against Salmonella typhimurium C7731 after 24 hrs by NCCLS-protocol based assay; format: functional, Salmonella enterica subsp. enterica serovar Typhimurium; conditions: Salmonella enterica, C7731, 24 h
Pseudomonas aeruginosa [25] = test: Antimicrobial activity against Pseudomonas aeruginosa 26305 clinical isolates after 24 hrs by NCCLS-protocol based assay; format: functional; conditions: Pseudomonas aeruginosa, 26305, 24 h
Escherichia coli [26] = test: Bactericidal activity against Escherichia coli 078 incubated for 4 hrs followed by culture spread on agar plates and cultured overnight; format: functional; conditions: Escherichia coli, 078, 4 h; read-out: MBC>99.9
Salmonella typhimurium [27] = test: Antimicrobial activity against Salmonella typhimurium ATCC 14028 after 24 hrs by NCCLS-protocol based assay; format: functional, Salmonella enterica subsp. enterica serovar Typhimurium; conditions: Salmonella enterica, ATCC 14028, 24 h
Acinetobacter baumannii [28] = test: Bactericidal activity against Acinetobacter baumannii incubated for 4 hrs followed by culture spread on agar plates and cultured overnight; format: functional; conditions: read-out: MBC>99.9
Escherichia coli [29] = test: Antimicrobial activity against Escherichia coli K88 after 24 hrs by NCCLS-protocol based assay; format: functional; conditions: K88, 24 h
Escherichia coli [30] = test: Bactericidal activity against Escherichia coli ATCC 25922 incubated for 4 hrs followed by culture spread on agar plates and cultured overnight; format: functional; conditions: ATCC 25922, 4 h, read-out: MBC>99.9
Acinetobacter baumannii [31] = test: Antimicrobial activity against Acinetobacter baumannii after 24 hrs by NCCLS-protocol based assay; format: functional
Salmonella typhimurium [32] = test: Bactericidal activity against Salmonella typhimurium C7731 incubated for 4 hrs followed by culture spread on agar plates and cultured overnight; format: functional, Salmonella enterica subsp. enterica serovar Typhimurium; conditions: Salmonella enterica, C7731, 4 h; read-out: MBC>99.9

| MIC95 (Escherichia coli [1]) | MIC95 (Escherichia coli [2]) | MIC95 (Pseudomonas aeruginosa [8]) | MIC95 (Escherichia coli [11]) | MIC95 [12] | MIC95 (Escherichia coli [13]) | MIC95 (Klebsiella pneumoniae [15]) | MIC95 (Pseudomonas aeruginosa [16]) | MIC95 (Pseudomonas aeruginosa [18]) | MIC95 (Pseudomonas aeruginosa [20]) | Compound | MBC (Escherichia coli [3]) | MBC (Escherichia coli [4]) | MBC (Escherichia coli [5]) | MBC (Salmonella typhimurium [6]) | MBC (Pseudomonas aeruginosa [7]) | MBC (Pseudomonas aeruginosa [9]) | MBC [10] | MBC (Pseudomonas aeruginosa [14]) | MBC (Pseudomonas aeruginosa [17]) | MBC (Klebsiella pneumoniae [19]) | also measured |
| --- | --- | --- | --- | --- | --- | --- | --- | --- | --- | --- | --- | --- | --- | --- | --- | --- | --- | --- | --- | --- | --- |
| 1 µM (≈ 1.2 µg/mL) | 1 µM (≈ 1.2 µg/mL) | 2 µM (≈ 2.41 µg/mL) | 0.5 µM (≈ 0.602 µg/mL) | 0.5 µM (≈ 0.602 µg/mL) | 2 µM (≈ 2.41 µg/mL) | 4 µM (≈ 4.81 µg/mL) | 16 µM (≈ 19.3 µg/mL) | 4 µM (≈ 4.81 µg/mL) | 4 µM (≈ 4.81 µg/mL) | CC[C@H](C)CCCCC(=O)N[C@@H](CCN)C(=O)N[C@H](C(=O)N[C@@H](CCN)C(=O)N[C@H]1CCNC(=O)[C@H]([C@@H](C)O)NC(=O)[C@H](CCN)NC(=O)[C@H](CCN)NC(=O)[C@H](CC(C)C)NC(=O)[C@@H](Cc2ccccc2)NC(=O)[C@H](CCN)NC1=O)[C@@H](C)O (X1-[Dab]T[Dab][Dab][Dab][dF]L[Dab][Dab]T; lactam 4-C) | 2 µM (≈ 2.41 µg/mL) | 1 µM (≈ 1.2 µg/mL) | 1 µM (≈ 1.2 µg/mL) | 4 µM (≈ 4.81 µg/mL) | 4 µM (≈ 4.81 µg/mL) | 32 µM (≈ 38.5 µg/mL) | 1 µM (≈ 1.2 µg/mL) | 2 µM (≈ 2.41 µg/mL) | 8 µM (≈ 9.63 µg/mL) | 8 µM (≈ 9.63 µg/mL) | MIC95 (Pseudomonas aeruginosa [21]): 2 µM (≈ 2.41 µg/mL); MBC (Pseudomonas aeruginosa [22]): 4 µM (≈ 4.81 µg/mL); MBC (Pseudomonas aeruginosa [23]): 8 µM (≈ 9.63 µg/mL); MIC95 (Salmonella typhimurium [24]): 2 µM (≈ 2.41 µg/mL); MIC95 (Pseudomonas aeruginosa [25]): 4 µM (≈ 4.81 µg/mL); MBC (Escherichia coli [26]): 2 µM (≈ 2.41 µg/mL); MIC95 (Salmonella typhimurium [27]): 2 µM (≈ 2.41 µg/mL); MBC (Acinetobacter baumannii [28]): 0.25 µM (≈ 0.301 µg/mL); MIC95 (Escherichia coli [29]): 0.5 µM (≈ 0.602 µg/mL); MBC (Escherichia coli [30]): 2 µM (≈ 2.41 µg/mL); MIC95 (Acinetobacter baumannii [31]): 0.25 µM (≈ 0.301 µg/mL); MBC (Salmonella typhimurium [32]): 4 µM (≈ 4.81 µg/mL) |
| 2 µM | 4 µM | 32 µM | 2 µM | 4 µM | 2 µM | 32 µM | > 64 µM | > 64 µM | 32 µM | H-LKPLLKPLLKPLLKPLLKPL-NH2 | 4 µM | 8 µM | 2 µM | 16 µM | 64 µM | > 64 µM | 8 µM | 16 µM | 64 µM | 64 µM | MIC95 (Pseudomonas aeruginosa [21]): 16 µM; MBC (Pseudomonas aeruginosa [22]): 64 µM; MBC (Pseudomonas aeruginosa [23]): > 64 µM; MIC95 (Salmonella typhimurium [24]): 16 µM; MIC95 (Pseudomonas aeruginosa [25]): 32 µM; MBC (Escherichia coli [26]): 8 µM; MIC95 (Salmonella typhimurium [27]): 8 µM; MBC (Acinetobacter baumannii [28]): 4 µM; MIC95 (Escherichia coli [29]): 2 µM; MBC (Escherichia coli [30]): 4 µM; MIC95 (Acinetobacter baumannii [31]): 4 µM; MBC (Salmonella typhimurium [32]): 16 µM |
